Experiments:
[1] = system: PCNA and Stathmin genes; assay: In vivo renal ischemia-reperfusion: real-time RT-PCR of regeneration markers PCNA and Stathmin in kidney; design: species or system Swiss strain mice; conditions: FIG. 1
Experimental: (§1) Swiss strain mice were used, males with an approximate weight of 25-30 g (Charles River, France). All the procedures were performed under the supervision of the ethics committee of the Institute for Biomedical Research of Barcelona (CSIC) and followed European Union guidelines. The environmental conditions were kept constant, the temperature was 21-22° C., the relative humidity was 70% and the alternative cycles of light/darkness were 12 h. The animals were fed a standard diet of AO4 fodder (Panlab, Barcelona) and water from the Barcelona supply network ad libitum.
The animals were anaesthesised with Isoflurane, placed in the supine position, and their body temperature was maintained at between 36° C. and 37° C. After performing a median laparotomy to access the kidney, carefully putting aside the intestinal packet, bilateral ischemia was induced by clamping both renal arterio-venous pedicles with a non-traumatic microvascular clamp for 45 minutes. Subsequently, the reperfusion period was started, with removal of the clamp, and it was visually verified by observing the return of the blood flow to the kidney. Subsequently, the animal was sutured and administered subcutaneous Buprex (4.16 μg/100 g of weight).
Animals subjected to a sham operation were used as controls. During the entire operation process, the animals were well hydrated and the body temperature was maintained at about 37° C. During the reperfusion time, the animals were stabulated under the control of a veterinary. […]
(§2) The RNA of the kidney samples was extracted by means of the TRIzol reagent in accordance with the manufacturer's instructions (Invitrogen, Barcelona). […] The RNA concentrations were calculated by determining the absorbance at 260 nm. The integrity of the RNA thus obtained was examined by analysing the 18s and 28s ribosomal RNA bands detected and analysed in the Bioanalyzer of the Clinical Hospital of Barcelona (Agilent).
The expression of the analysed genes was measured by means of real-time quantitative RT-PCR normalised with the glyceraldehyde 3-phosphate dehydrogenase (GAPDH) housekeeping gene. […]

[2] = system: Erythropoietin (EPO); assay: In vivo renal ischemia-reperfusion: Western Blot for EPO in renal tissue; design: species or system Swiss strain mice; conditions: vs I/R, FIG. 3
Experimental: as §1
(§3) The animals were anaesthesised with Isoflurane, placed in the supine position, and their body temperature was maintained at between 36° C. and 37° C. […]
The renal tissue samples were homogenised in lysis buffer (70 mM sucrose, 2 mM Hepes KOH, 220 mM Mannitol, 0.1 mM EGTA, 1 mM PMSF, 0.1 mM BSA, antiproteases cocktail (SIGMA)); subsequently, the protein concentration thereof was determined. The proteins were determined by means of the Bradford colorimetric method with a commercial reagent from BioRad.
50 μg of protein for each of the groups to be analysed were placed in each well of the 12% acrylamide gel. […]

[3] = system: caspase 3; assay: In vivo renal ischemia-reperfusion: apoptosis evaluated by activity of caspase 3 in renal tissue; design: species or system Swiss strain mice; conditions: FIG. 2
Experimental: as §1, §3
(§4) The activity of caspase-3 was determined by measuring the proteolysis of the specific substrate (N-acetyl-Asp-Glu-Val-Asp-7-amino-4-methyl coumarin (DEVD-AMC; Biomol, Plymouth Meeting, Pa.). The renal tissue samples were homogenised and sonicated in the assay buffer (50 mM HEPES, 10% sucrose, 0.1% CHAPS, 5 mM GSSG, 5 mM DTT). The supernatants of the samples were incubated in this buffer, whereto DEVD-AMC at a concentration of 50 μM was added. The AMC released was quantified for 1 hour and a half at 37° C. by fluorospectrophotometry, using 380 nm of excitation and measuring the emission at 450 nm.

[4] = system: Proximal tubular epithelial cells from rats (NRK52e); assay: In vitro cisplatin-induced damage of renal tubular cells: real-time RT-PCR of PCNA and Ki67; assay type: cell-based; conditions: cis+CAII group: NRK52e, cisplatin 200 μM 6 h, then 10 μg/ml CAII 16 h; vs cis; FIG. 4
Experimental: (§5) Proximal tubular epithelial cells from rats (NRK52e) were kept in culture bottles (75 cm^2), with a culture medium (DMEM) whereto 17.5 mM of glucose and 2.5 mM of glutamine were added; this medium was also supplemented with antibiotics (100 units/ml of penicillin and 100 μg/ml of streptomycin) and 10% foetal calf serum (FCS). The cells were incubated in a humidified atmosphere with 5% CO2 at 37° C.
(§6) The control cells (control) were collected when they reached confluence without any treatment.
Treatment with cisplatin (Sigma) was performed by dissolving the drug in the minimum volume of DMSO (40 μl) and diluting it in PBS at a concentration of 200 μM. After 6 hours, the medium was removed and a new medium was added, without the drug for the CIS group and with 10 μg/ml of CAII for the CIS+CAII group. The samples were collected 16 hours later. […]
as §2, with “the” for “the kidney”, “samples taken from the cell culture” for “samples”, “using” for “by means of”
The expression of the analysed genes was measured by means of real-time quantitative RT-PCR normalised with GAPDH. […]

[5] = system: Proximal tubular epithelial cells from rats (NRK52e); assay: In vitro cisplatin-induced damage of renal tubular cells: apoptosis evaluated by activity of caspase 3; assay type: cell-based; conditions: cisplatin+CAII group: NRK52e, cisplatin 200 μM 6 h, then 10 μg/ml CAII 16 h; vs cisplatin; FIG. 5
Experimental: as §5, §6
Treatment with cisplatin (Sigma) was performed by dissolving the drug in the minimum volume of DMSO (40 μl) and diluting it in PBS at a concentration of 200 μM. […]
as §4, with “Pa.). The cell culture samples were” for “Pa.). The renal tissue samples were”, “of the sample were incubated” for “of the samples were incubated”, “C. by means of fluorospectrophotometry, using” for “C. by fluorospectrophotometry, using”

[6] = I/R+AZT group: Azetazolamide 30 mg/kg intraperitoneal one day prior to I/R

Row | Compound | regenerative markers (PCNA and Stathmin mRNA) [1, 6] | amount of EPO in kidney (Western Blot) [2, 6] | regenerative response (expression of PCNA and Stathmin mRNA) ([1]; I/R+CAII group: 45 min ischemia, 24 h reperfusion, CAII 5 mg/kg into inferior vena cava at beginning of reperfusion, vs I/R) | regeneration (PCNA and Stathmin mRNA) in undamaged tissue ([1]; control+CAII group: no I/R, CAII 5 mg/kg intravenous 24 h prior to sample collection) | incidence of apoptosis (activity of caspase 3) ([3]; I/R+CAII group: CAII 5 mg/kg at beginning of reperfusion, vs I/R) | apoptosis naturally present in healthy tissue (activity of caspase 3) ([3]; control+CAII group: no I/R, CAII 5 mg/kg intravenous) | amount of EPO in kidney (Western Blot) ([2]; I/R+CAII group: CAII 5 mg/kg at beginning of reperfusion) | regeneration (expression of PCNA and Ki67 mRNA) [4] | apoptosis (activity of caspase 3) [5]
1 | CC(=O)Nc1nnc(S(N)(=O)=O)s1 [azetazolamide, Azetazolamide, reference compound] | decrease | reduced the amount of EPO |  |  |  |  |  |  | 
2 | carbonic anhydrase II [CAII] |  |  | marked increase | did not induce regeneration | drastically reduced | does not affect | marked increase | significantly increased regeneration | capable of reverting apoptosis

From US20130101565A1, “USE OF CARBONIC ANHYDRASE II FOR PRODUCING A DRUG” (CONSEJO SUPERIOR DE INVESTIGACIONES CIENTIFICAS (CSIC), priority 2009, published 2013)
